{
  "source": "patent US20260345596A1",
  "about": "“TREATMENT OF LOCALLY ADVANCED OR METASTATIC UROTHELIAL CARCINOMA WITH ERDAFINITIB” (priority 2023, published 2026)",
  "key": {"[1]": {"tested_on": "locally advanced or metastatic urothelial carcinoma with FGFR alterations", "assay": "Study BLC3001 (NCT03390504, THOR) Cohort 1: efficacy of erdafitinib versus chemotherapy", "assay_type": "in vivo, human", "protocol": "Subjects are assigned to Cohort 1 or Cohort 2 based upon prior treatment with an anti-PD-(L)1 agent. […] Cohort 1 and Cohort 2 are assessed independently.\nEach potential subject must satisfy all of the following criteria to be enrolled in the study: • 1. ≥18 years of age (or the legal age of consent in the jurisdiction in which the study is taking place) • 2. […] Minor components (<50% overall) of variant histology such as glandular or squamous differentiation, or evolution to more aggressive phenotypes such as sarcomatoid or micropapillary change are acceptable • 3. Metastatic or surgically unresectable urothelial cancer • 4. Documented progression of disease, defined as any progression that requires a change in treatment, prior to randomization • 5. Prior treatment with an anti-PD-(L)1 agent as monotherapy or as combination therapy; no more than 2 prior lines of systemic treatment. […] These subjects will however still be eligible only for Cohort 1.\nEach dose should be taken at approximately the same time each day, with or without food. The study drug is to be taken with approximately 240 mL (8 ounces) of water. The tablets should be swallowed intact and subjects should not attempt to dissolve them in water, tablets must not be broken or chewed. Subjects should avoid consuming grapefruit or Seville oranges due to CYP450 3A4/5 inhibition.\nNo concomitant treatment is required for these subjects.\nSubjects randomized to chemotherapy in Arm 1B (see FIG. 1) receive vinflunine 320 mg/m2 as a 20-minute intravenous infusion once every 3 weeks or docetaxel 75 mg/m2 as a 1-hour intravenous infusion every 3 weeks. Treatment with either agent will be administered until disease progression, intolerable toxicity, withdrawal of consent or decision by the investigator to discontinue treatment.\nThe primary endpoint is OS. The primary efficacy analysis is based on the Intent-to-Treat (ITT) population that includes all randomized subjects in each cohort. The Kaplan-Meier method is used to estimate the distribution of OS for each treatment group within each cohort. The stratified log-rank test is used to compare survival curves of OS between the 2 treatment arms. The stratification factors to be used in the analysis are as follows: region (North America vs EU vs rest of world), ECOG performance status (0 or 1 vs 2), and disease distribution (presence vs absence of visceral metastases: lung, liver, or bone). Pre-specified strata combining will be implemented when some strata have too few OS events.\nThe secondary efficacy endpoints are PFS, ORR (achievement of objective response), and Safety. Secondary end points also included DOR, change from baseline in patient reported outcomes (Functional Assessment of Cancer Therapy—Bladder Cancer, Patient-Global Impression of Severity, and the European Quality of Life—5 Dimensions—5 Levels). PFS is analyzed the same as OS. Kaplan-Meier method is used to estimate the distribution of DOR. ORR is analyzed by Cochran-Mantel-Haenszel chi-square test for randomized subjects with measurable disease at baseline. The analyses of the secondary efficacy endpoints include all randomized subjects (ITT subjects) unless otherwise specified. The family-wise type 1 error is strongly controlled at 5% (2-sided) for the secondary efficacy endpoints.\nOphthalmologic examination at baseline included an Amsler grid test, optical coherence tomography scan (OCT), and ophthalmologic evaluation. An Amsler grid test was conducted at every cycle. Repeat OCT was done as clinically indicated based on the Amsler grid test or clinical assessment.\nO'Brien-Fleming boundaries were applied, implemented by the Lan-DeMets spending function for a total Type I error of 0.05. […] Stopping for futility was possible if the hazard ratio at the interim analysis exceeded 1.0, considering the totality of the data.\nDescriptive subgroup analyses were conducted, but with no adjustment for multiplicity."}, "[2]": {"tested_on": "FGFR phosphorylation and signaling", "assay": "FGFR phosphorylation and signaling in cell lines expressing FGFR genetic alterations", "assay_type": "cell-based", "details": "cell lines with FGFR genetic alterations"}, "[3]": {"tested_on": "cell lines expressing FGFR genetic alterations", "assay": "Cell viability of cell lines expressing FGFR genetic alterations", "assay_type": "cell-based", "details": "cell lines with FGFR genetic alterations"}, "[4]": {"assay": "Protein binding in patients", "details": "human, in vivo"}, "bacteria": {"tested_on": "bacteria", "assay": "Bacterial reverse mutation (Ames) assay"}, "[5]": {"assay": "Excretion after a single oral dose of radiolabeled erdafitinib", "details": "for dose excreted: human, in vivo, po"}, "QTc interval": {"tested_on": "QTc interval", "assay": "Cardiac electrophysiology: QTc interval in dose escalation and dose expansion study (187 patients)", "details": "large effect = ≥20 ms"}},
  "note": "“Also recorded” adds a separate entry of the source.",
  "data": [
    {"smiles": "COc1cc(OC)cc(N(CCNC(C)C)c2ccc3ncc(-c4cnn(C)c4)nc3c2)c1", "note": "[Erdafitinib, N-(3,5-dimethoxyphenyl)-N′-(1-methylethyl)-N-[3-(1-methyl-1H-pyrazol-4-yl)quinoxalin-6-yl]ethane-1,2-diamine]", "values": [
      {"measurement": "Disease control rate (CR + PR + SD)", "setting": "[1]; ITT", "result": "112 (82.4%) n (%)"},
      {"measurement": "Progression-free survival (PFS): number of events (%)", "setting": "[1]; ITT", "result": "101 (74.3%) number (%)"},
      {"measurement": "Overall Survival (OS): number of events (%)", "setting": "[1]; ITT, 8 mg oral once daily, up-titration to 9 mg, chemotherapy docetaxel or vinflunine", "result": "77 (56.6%) number (%)"},
      {"measurement": "Objective response rate, ORR (CR + PR)", "setting": "[1]; ITT, RECIST v1.1, investigator", "result": "62 (45.6%) n (%)"},
      {"measurement": "OS events (deaths)", "setting": "[1]; ITT, at data cut, ~75% information fraction, count", "result": 77},
      {"measurement": "PFS events", "setting": "[1]; ITT, at data cut, count", "result": 101},
      {"measurement": "Not evaluable (NE)", "setting": "[1]; ITT, best overall response", "result": "10 (7.4%) n (%)"},
      {"measurement": "Progressive disease (PD)", "setting": "[1]; ITT, best overall response", "result": "14 (10.3%) n (%)"},
      {"measurement": "Complete response, CR (%)", "setting": "[1]; ITT, best overall response, RECIST v1.1, investigator", "result": "9 (6.6%) n (%)"},
      {"measurement": "Complete response (CR)", "setting": "[1]; ITT, investigator", "result": 6.6, "unit": "%"},
      {"measurement": "Partial response (PR)", "setting": "[1]; ITT, investigator", "result": 39.0, "unit": "%"},
      {"measurement": "Patients alive at 6 months", "setting": "[1]; estimated, (95% CI)", "result": "85% (95% CI, 77 to 90)"},
      {"measurement": "Patients alive at 12 months", "setting": "[1]; estimated, (95% CI)", "result": "51% (95% CI, 41 to 60)"},
      {"measurement": "Median overall survival (years)", "setting": "[1]; mUC and FGFR alt after prior anti-PD-(L)1", "result": "about 1 year"},
      {"measurement": "Improvement of disease control rate", "setting": "[1]; versus chemotherapy", "result": "about 39%"},
      {"measurement": "Objective response outcome in words", "setting": "[1]; versus chemotherapy", "result": "approximately a four-fold higher probability of achieving an objective response; also recorded: The superiority of Erdafitinib relative to chemotherapy, in terms of ORR, was established; also recorded: significantly greater for Erdafitinib, with similar DOR; also recorded: generally consistent in the subgroups evaluated"},
      {"measurement": "Overall survival outcome in words", "setting": "[1]; versus chemotherapy", "result": "The superiority of Erdafitinib relative to chemotherapy, in terms of OS, was established; also recorded: generally consistent across clinically meaningful subgroups including age group, FGFR alteration type, baseline ECOG PS, presence/absence of visceral metastases and PD-L1 status; also recorded: significantly prolonged or extended OS compared to chemotherapy; also recorded: consistent across clinically relevant subgroups; also recorded: significantly longer with erdafitinib versus chemotherapy; also recorded: significantly prolonged median overall survival compared with chemotherapy"},
      {"measurement": "Progression-free survival outcome in words", "setting": "[1]; versus chemotherapy", "result": "The superiority of Erdafitinib relative to chemotherapy, in terms of PFS, was established; also recorded: significantly prolonged PFS; also recorded: generally consistent in the subgroups evaluated"},
      {"measurement": "Confirmed complete response (CR)", "setting": "[1]; ≥2 consecutive assessments", "result": 5.1, "unit": "%"},
      {"measurement": "Confirmed partial response (PR)", "setting": "[1]; ≥2 consecutive assessments", "result": 30.1, "unit": "%"},
      {"measurement": "FGFR phosphorylation and signaling", "setting": "[2]", "result": "inhibited FGFR phosphorylation and signaling"},
      {"measurement": "Cell viability", "setting": "[3]", "result": "decreased cell viability in cell lines expressing FGFR genetic alterations, including point mutations, amplifications, and fusions"},
      {"measurement": "Dose proportionality of exposure (Cmax and AUC)", "setting": "0.5 to 12 mg, single and repeat once daily dosing", "result": "increased proportionally across the dose range of 0.5 to 12 mg"},
      {"measurement": "Effect of food on exposure", "setting": "high-fat and high-calorie meal", "result": "No clinically meaningful differences in erdafitinib exposure"},
      {"measurement": "Time to steady state", "setting": "once daily dosing", "result": 2, "unit": "weeks"},
      {"measurement": "Effect of age, sex, race, body weight, hepatic or renal impairment on exposure", "setting": "specific populations", "result": "No clinically meaningful effects on erdafitinib exposure were observed based on age (21-92 years), sex, race (White, Hispanic or Asian), body weight (36-166 kg), mild (Child-Pugh A) or moderate (Child-Pugh B) hepatic impairment, or mild to moderate renal impairment (eGFR 30 to 89 mL/min/1.73 m^2)"},
      {"measurement": "Solubility in organic solvents", "setting": "Solubility; organic solvents", "result": "practically insoluble, or insoluble to freely soluble in organic solvents"},
      {"measurement": "Solubility across the pH range of 1 to 7.4", "setting": "Solubility; pH 1 to 7.4", "result": "adequate solubility across the pH range of 1 to 7.4"},
      {"measurement": "Solubility in aqueous media", "setting": "Solubility; wide range of pH values", "result": "slightly soluble to practically insoluble, or insoluble in aqueous media over a wide range of pH values"},
      {"measurement": "fraction unbound", "setting": "[4]", "result": 0.003},
      {"measurement": "Mutagenicity (Ames)", "setting": "bacteria", "result": "not mutagenic"},
      {"measurement": "Dose recovered in feces", "setting": "[5]", "result": "approximately 69%"},
      {"measurement": "Dose recovered in urine", "setting": "[5]", "result": 19, "unit": "%"},
      {"measurement": "dose excreted", "setting": "[5]; Dose recovered in feces as unchanged", "result": 19, "unit": "%"},
      {"measurement": "dose excreted", "setting": "[5]; Dose recovered in urine as unchanged", "result": 13, "unit": "%"},
      {"measurement": "Effect on QTc interval", "setting": "QTc interval", "result": "no large effect (i.e., ≥20 ms) on the QTc interval"}
    ]}
  ]
}
